Patent US10550171B2, “Immunomodulatory peptides and methods of use thereof” (THE GOVERNORS OF THE UNIVERSITY OF ALBERTA, priority 2012, dated 2020)

Key:
[1] = biological target: T1, binding of IL29 to IL-28R (Homo sapiens, UniProt Q8IU57); assay: ELISA assay, effect of peptides on binding of IL29 to IL-28R; conditions: for inhibition of the binding of IL29 to IL-28R: increasing peptide concentrations
T1 sequence (Q8IU57 21-228 limits assumed): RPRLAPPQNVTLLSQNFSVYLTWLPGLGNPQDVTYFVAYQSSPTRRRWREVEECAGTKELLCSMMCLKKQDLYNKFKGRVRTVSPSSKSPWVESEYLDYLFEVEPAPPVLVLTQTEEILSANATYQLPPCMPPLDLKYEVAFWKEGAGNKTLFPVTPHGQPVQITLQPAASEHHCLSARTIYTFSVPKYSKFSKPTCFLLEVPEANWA

CMV (Towne strain) = assay: CMV replication plaque assay in HFF-1 cells; type: cell-based, cytomegalovirus (CMV); conditions: HFF-1 cells pre-treated 2 h with peptide 10 μM; for inhibitory effect on CMV replication (viral growth curves, plaque assay): CMV Towne MOI 0.03, day 4 and day 6
Procedure: The data are depicted in FIG. 1. […] HFF-1 cells were pre-treated for 2 h with peptides (10 μM), then washed and infected with CMV (Towne strain, MOI 0.03) and viral growth curves were generated.
Peptides PRT ([…]; SEQ ID NO:23). LKY (ASVTFNLFRLLTRDLKY; SEQ ID NO: 15), and LNC (ASVTFNLFRLLTRDLNC; SEQ ID NO: 16) were pre-incubated at a concentration of 10 μM with HFF-1 cells (ATCC HS97FS. SCRC1041, and CCD1112SK). The cells were washed, then challenged with IL-28B (100 ng/ml) for 30 minutes. Peptides REV ([…]; SEQ ID NO:24), FKG ([…]; SEQ ID NO:25), and APP ([…]; SEQ ID NO:26) were pre-incubated for 2 hours with IL-28B, then added to HFF1 for 30 minutes. Proteins were harvested and STAT2 phosphorylation was determined by Western blot analysis. The effect of the peptides on CMV replication in HFF-1 cells was also tested. HFF-1 cells were pre-treated for 2 hours with peptides (10 μM) or control. CMV replication was determined 4 days later using plaque assays. The data are depicted in FIGS. 19 and 20. In FIG. 19, the data are from Western blot experiments. HFF11 cells were pre-treated with individual peptides for 2 hours, then challenged with IL28B for 30 minutes. Results were normalized to STAT2 and β-tubulin baseline expression. In FIG. 20, the data are from plaque assays. HFF1 cells were pre-treated with individual peptides for 2 hours, then infected with CMV Towne strain (multiplicity of infection 0.03). Plaque forming units (PFU) at day 4 were determined.

STAT2 phosphorylation = STAT2 phosphorylation in HFF-1 cells challenged with IL-28B, Western blot; type: cell-based, human; conditions: for reduction in STAT2-phosphorylation: HFF-1 cells pre-incubated with peptide 10 μM, washed, IL-28B 100 ng/ml 30 minutes, normalized to STAT2 and β-tubulin; for blocking of STAT-2 phosphorylation: peptide pre-incubated 2 hours with IL-28B, then added to HFF1 for 30 minutes
STAT1 phosphorylation = assay: STAT-1 phosphorylation in THP1-derived macrophages, flow cytometry; type: cell-based; conditions: IL28B 100 ng/mL, peptide 1 at 10 μM for 90 min before IL28B, peptide 17 added together with IL28B
Procedure: The effect of peptide 1 and peptide 17 on STAT-1 phosphorylation in macrophages was tested using flow cytometry.
STAT1 phosphorylation is one of the earliest events that occur after the IFN receptor is activated. THP1 cells (a monocytic cell line) were stimulated for 3 days with phorbol-12-myristate-13-acetate (PMA) and then rested for another 5 days in standard cultivation methods (37° C. 5% CO2) with RPMI containing 10% fetal calf serum (FCS). After 3 days, the PMA was removed and fresh media added. This treatment induces maturation of THP1, such that the THP1 cells are induced to express macrophage markers (Daigneault et al. (2010) PLoSOne 5:e8668). Next, the cells were treated: (i) either for 90 min with peptide 1 at a concentration of 10 μM and then added IL28B at 100 ng/mL or (ii) peptide 17 was added directly together with IL28B. “Scramble p1” is a control peptide with the amino acid sequence of p1 scrambled. Scramble p17” is a control peptide with the amino acid sequence of p17 scrambled.

[2] = biological target: T2, binding of IL28A to IL-28R (Homo sapiens, UniProt Q8IU57); assay: ELISA assay, effect of peptides on binding of IL28A to IL-28R; conditions: increasing peptide concentrations
T2 sequence (Q8IU57 21-228 limits assumed): T1 sequence (Q8IU57 21-228 limits assumed)

IL28R1 = biological target: T3, IL28R1 (Homo sapiens, UniProt Q8IU57); assay: Biacore assay, binding of interferon lambda ligands to IL28R1
T3 sequence (Q8IU57 21-520): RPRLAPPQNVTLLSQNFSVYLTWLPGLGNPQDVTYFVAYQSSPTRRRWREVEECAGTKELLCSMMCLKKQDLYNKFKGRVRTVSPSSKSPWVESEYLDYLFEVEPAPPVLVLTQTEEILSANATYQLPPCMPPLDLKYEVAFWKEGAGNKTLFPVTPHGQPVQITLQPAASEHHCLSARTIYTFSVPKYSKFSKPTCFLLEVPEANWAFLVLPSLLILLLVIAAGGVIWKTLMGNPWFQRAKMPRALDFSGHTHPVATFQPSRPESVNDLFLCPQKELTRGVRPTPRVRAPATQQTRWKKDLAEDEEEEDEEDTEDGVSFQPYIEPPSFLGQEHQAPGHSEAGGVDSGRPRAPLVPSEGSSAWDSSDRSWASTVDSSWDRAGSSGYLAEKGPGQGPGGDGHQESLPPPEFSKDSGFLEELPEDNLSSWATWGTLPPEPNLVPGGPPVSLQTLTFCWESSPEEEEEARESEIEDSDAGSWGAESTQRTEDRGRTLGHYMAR
Description: FIG. 9 depicts binding affinity (KD values in PM) of ligands IL28A, IL28B, and IL29, and of peptides 1, 2, 6, 7, and 15-18, for IL28R1. […] In […], the KD values indicate differences between peptides.
FIG. 10 depicts the effect of peptides on binding of IL29 to IL-28R. Binding of IL29 was disrupted by addition of increasing peptide concentrations.

## ASVTFNLFRLLTRDLKY [Peptide 6]
[1]
  inhibition of the binding of IL29 to IL-28R: highly potent
CMV (Towne strain)
  inhibitory effect on CMV replication (viral growth curves, plaque assay): strong inhibitory effects
STAT2 phosphorylation
  reduction in STAT2-phosphorylation: 40%

## ASVTFNLFRLLTRDLNC [Peptide 7]
CMV (Towne strain); CMV Towne MOI 0.03, day 4 after infection
  lower CMV replication (plaque forming units): 2.5 log10
CMV (Towne strain)
  inhibitory effect on CMV replication (viral growth curves, plaque assay): strong inhibitory effects
STAT2 phosphorylation
  reduction in STAT2-phosphorylation: 34%

## ELASFKKARDALEESLKL [Peptide 1]
STAT1 phosphorylation
  STAT1 phosphorylation: reduce STAT1 phosphorylation
[1]
  IC50 for inhibition of IL29 binding, as excess of peptide over the natural ligand: 50 time excess of peptide over the natural ligand
  inhibition of the binding of IL29 to IL-28R: highly potent
CMV (Towne strain)
  inhibitory effect on CMV replication (viral growth curves, plaque assay): strong inhibitory effects

## KLKNWSCSSPVFPGNWDLRL [Peptide 17]
STAT1 phosphorylation
  STAT1 phosphorylation: reduce STAT1 phosphorylation
[2]
  inhibition of the binding of IL28A to IL-28R: potent

## LLKDCKCRSRLFPRTWDLRQ [Peptide 15]
[2]
  inhibition of the binding of IL28A to IL-28R: potent

## LLKDCRCHSRLFPRTWDLRQ [Peptide 16]
[2]
  inhibition of the binding of IL28A to IL-28R: potent

## MMCLKKQDLYNKFKG (MMCLKKQDLYNKFRG) [Peptide 9]
STAT2 phosphorylation
  blocking of STAT-2 phosphorylation: None of peptides REV, FKG, and APP blocked

## SEYLDYLFEVEPAPP [Peptide 10]
STAT2 phosphorylation
  blocking of STAT-2 phosphorylation: None of peptides REV, FKG, and APP blocked

## VAYQSSPTRRRWREV [Peptide 8]
STAT2 phosphorylation
  blocking of STAT-2 phosphorylation: None of peptides REV, FKG, and APP blocked

B1: IL28B: polypeptide of about 196 amino acids which binds a heterodimeric IL-28R complex (protein, listed as Homo sapiens)
chain: MTGDCMPVLVLMAAVLTVTGAVPVARLRGALPDARGCHIAQFKSLSPQELQAFKRAKDALEESLLLKDCKCRSRLFPRTWDLRQLQVRERPVALEAELALTLKVLEATADTDPALGDVLDQPLHTLHHILSQLRACIQPQPTAGPRTRGRLHHWLHRLQEAPKKESPGCLEASVTFNLFRLLTRDLNCVASGDLCV
IL28R1
  binding affinity towards IL28R1: significant lower binding affinity

B2: IL29: polypeptide of about 200 amino acids which binds a heterodimeric IL-28 receptor complex (protein, listed as Homo sapiens)
chain: MAAAWTVVLVTLVLGLAVAGPVPTSKPTTTGKGCHIGRFKSLSPQELASFKKARDALEESLKLKNWSCSSPVFPGNWDLRLLQVRERPVALEAELALTLKVLEAAAGPALEDVLDQPLHTLHHILSQLQACIQPQPTAGPRPRGRLHHWLHRLQEAPKKESAGCLEASVTFNLFRLLTRDLKYVADGNLCLRTSTHPEST
IL28R1
  binding affinity towards IL28R1: highest binding affinity of all Interferon lambdas
